{
  "source": "patent US6818200B2",
  "about": "“Method of using deuterated calcium channel blockers” (priority 1994, dated 2004)",
  "key": {"S. pyogenes": {"system": "S. pyogenes", "assay": "Effect of solvent (water or D2O) on ceftazidime activity", "format": "cell-based", "settings": "dissolved in D2O (FIG. 33)", "method": "The effect of solvent on ceftazidime activity was tested to confirm that dissolving ceftazidime in D2O could alter its efficacy. We therefore dissolved control and modified ceftazidime in water of D2O and tested it effect on S. pyogenes (FIG. 33). […] Thus, our findings underscore the unique importance of isotopes."}, "[1]": {"system": "normotensive Sprague-Dawley rats", "assay": "Nicardipines on blood pressure in normotensive Sprague-Dawley rats (Example VI)", "format": "in vivo, rat", "settings": "for slope function of dose response: calculated by Litchfield-Wilcoxon method; for change in mean arterial pressure at equipotent doses: control 1×10^−9 moles, deuterated 3×10^−9 moles, p=NS; for ED16, reduction in mean arterial pressure / ED50, reduction in mean arterial pressure / ED84, reduction in mean arterial pressure: injected, anesthetized rats", "text": "Effect of deuterated control […] on blood pressure in normotensive Sprague-Dawley rats."}, "S. aureus": {"system": "S. aureus", "assay": "Penicillin V dose-response study", "format": "cell-based", "method": "A dose-response study for penicillin V using S. aureus was conducted (FIG. 30). […] These conditions used a higher inoculum (100 fold) than previous studies.\nA experiment similar to that above was performed except that the dose range was larger."}, "[2]": {"system": "normotensive Sprague-Dawley rats", "assay": "Nifedipines on blood pressure in normotensive Sprague-Dawley rats (Example V)", "format": "in vivo, rat", "settings": "for maximum change in mean arterial pressure at equipotent doses: 1 ml injected, control 2×10^−3 molar, p=NS; for maximum change in mean arterial pressure at equipotent doses / duration of action (hypotensive response): deuterated 1×10^−3 molar; for duration of action (hypotensive response): equipotent doses: control 2×10^−3 molar, p=0.02", "text": "Effect of deuterated and control nifedipines on blood pressure in normotensive Sprague-Dawley rats."}, "[3]": {"system": "Spontaneously hypertensive rats (SHR)", "assay": "Blood pressure effect of i.v. nifedipines in anesthetized spontaneously hypertensive rats (Example II)", "format": "in vivo, rat", "settings": "at the three lower concentrations, p=0.08 Wilcoxon rank-sum (FIG. 1)", "protocol": "Spontaneously hypertensive rats (SHR) were anesthetized with pentobarbital (65 mg/kg, intraperitoneally) and a carotid artery and jugular vein cannulated. Blood pressure was continuously monitored via the carotid artery cannula. […] Aliquots of appropriate dilutions were then injected intravenously in the SHR and blood pressure effects monitored for at least two hours following injection. Doses used were 0.00001, 0.00002, 0.000025, and 0.00005 moles per rat in the control group and in the test group. All rats were within 25 grams of body weight of each other."}, "[4]": {"system": "T type calcium channels in NE 115 cells", "assay": "Use dependency of calcium channel inhibition, whole cell patch-clamp with repetitive pulses (Example IV)", "protocol": "In the following set of examples, calcium channels were depolarized with repetitive pulses of current at the intervals indicated. Such studies were carried out using the whole cell version of the patch-clamp. The reduction of inward current as a function of the interval between pulses in the absence of any drug was taken as the control."}, "Staphylococcus aureus [5]": {"system": "Staphylococcus aureus", "assay": "Antibiotic tube dilution (NCCLS)", "format": "cell-based", "settings": "tube dilution (FIG. 20 penicillin V, FIG. 26 methicillin)", "method": "(§1) Antibiotic testing was carried out using disc diffusion and tube dilution methods following NCCLS (National Committee for Clinical Laboratory Standards) methodology with several strains of bacteria.\n(§2) Antibiotic testing was carried using disc diffusion and tube dilution methods following NCCLS (National Committee for Clinical Laboratory Standards) methodology."}, "Streptococcus pyogenes [6]": {"system": "Streptococcus pyogenes", "assay": "Antibiotic tube dilution (NCCLS)", "format": "cell-based", "settings": "tube dilution (FIG. 20 penicillin V, FIG. 26 methicillin)", "method": "as §1, §2"}, "Staphylococcus aureus [7]": {"system": "Staphylococcus aureus", "assay": "Antibiotic disc diffusion (NCCLS)", "format": "cell-based", "settings": "disc diffusion (FIG. 19, 29 ceftazidime; FIGS. 21, 22 penicillin V; FIG. 27 methicillin)", "method": "as §1, §2"}, "Streptococcus pyogenes [8]": {"system": "Streptococcus pyogenes", "assay": "Antibiotic disc diffusion (NCCLS)", "format": "cell-based", "settings": "disc diffusion (FIGS. 21, 22 penicillin V; FIG. 27 methicillin)", "method": "as §1, §2"}, "Streptococcus faecalis [9]": {"system": "Streptococcus faecalis", "assay": "Antibiotic disc diffusion (NCCLS)", "format": "cell-based", "settings": "disc diffusion (FIGS. 21, 22 penicillin V; FIG. 27 methicillin)", "method": "as §1, §2"}, "[10]": {"system": "S. aureus clinical isolates", "assay": "Penicillin V on clinical isolates", "format": "cell-based", "settings": "methicillin sensitive isolates (FIGS. 34 and 35)", "method": "The effect of control and deuterated penicillin V on S. aureus clinical isolates was determined (FIGS. 34 and 35). […] The modest differences may be related to the concentrations used and density of bacterial seeding on the plates."}, "[11]": {"system": "Staphylococcus aureus (ATCC 25923) or Streptococcus faecalis (ATCC 29212)", "assay": "Penicillin V zonal inhibition on Mueller-Hinton agar plates", "format": "cell-based", "settings": "disks with 0.1 ml of 1 mg/ml solution, 24 hours at 37° C. (FIG. 23)", "method": "Penicillin V. or deuterated penicillin V disks were prepared by allowing 0.1 ml of a 1 mg/ml solution of the respective drugs to absorb into filter paper disks. After drying the disks were placed onto Mueller-Hinton agar plates seeded with either Staphylococcus aureus (ATCC 25923) or Streptococcus faecalis (ATCC 29212). The resulting plates were incubated for 24 hours at 37° C. and zones of inhibition around the disks were measured. Results are graphically depicted in FIG. 23."}, "Streptococcus faecalis [12]": {"system": "Streptococcus faecalis", "assay": "Antibiotic tube dilution (NCCLS)", "format": "cell-based", "settings": "tube dilution (FIG. 26 methicillin)", "method": "as §1, §2"}},
  "data": [
    {"smiles": "CC(C)(O/N=C(\\C(=O)N[C@@H]1C(=O)N2C(C(=O)[O-])=C(C[n+]3ccccc3)CS[C@H]12)c1csc(N)n1)C(=O)O", "note": "[control ceftazidime, ceftazidime]", "values": [
      {"measurement": "activity when dissolved in D2O", "setting": "S. pyogenes", "result": "enhance activity"}
    ]},
    {"smiles": "COC(=O)C1=C(C)NC(C)=C(C(=O)OCCN(C)Cc2ccccc2)C1c1cccc([N+](=O)[O-])c1", "note": "(stereo not drawn) [control nicardipine, nicardipine, reference compound]", "values": [
      {"measurement": "slope function of dose response", "setting": "[1]", "result": 416},
      {"measurement": "change in mean arterial pressure at equipotent doses", "setting": "[1]", "result": "−13.8", "unit": "mmHg"},
      {"measurement": "ED16, reduction in mean arterial pressure", "setting": "[1]", "result": "6.11e-06", "unit": "mmol"},
      {"measurement": "ED50, reduction in mean arterial pressure", "setting": "[1]", "result": 0.00254, "unit": "mmol"},
      {"measurement": "ED84, reduction in mean arterial pressure", "setting": "[1]", "result": 1.06, "unit": "mmol"}
    ]},
    {"smiles": "CC1(C)S[C@@H]2[C@H](NC(=O)COc3ccccc3)C(=O)N2[C@H]1C(=O)O", "note": "[control penicillin V, penicillin V, reference compound]", "values": [
      {"measurement": "bacteriocidal activity", "setting": "S. aureus; higher doses, larger dose range (FIG. 31)", "result": "ineffective"}
    ]},
    {"smiles": "[2H]C([2H])([2H])C1=C(C(=O)OC)C(c2cccc([N+](=O)[O-])c2)C(C(=O)OCCN(C)Cc2ccccc2)=C(C([2H])([2H])[2H])N1", "note": "(stereo not drawn) [deuterated nicardipine]", "values": [
      {"measurement": "duration of effect compared with control", "setting": "[1]; at most time periods (FIG. 10)", "result": "greater for deuterated nicardipine compared to control nicardipine"},
      {"measurement": "slope function of dose response", "setting": "[1]", "result": 46},
      {"measurement": "change in mean arterial pressure at equipotent doses", "setting": "[1]", "result": "−13.8", "unit": "mmHg"},
      {"measurement": "ED16, reduction in mean arterial pressure", "setting": "[1]", "result": "4.62e-05", "unit": "mmol"},
      {"measurement": "ED50, reduction in mean arterial pressure", "setting": "[1]", "result": 0.00211, "unit": "mmol"},
      {"measurement": "ED84, reduction in mean arterial pressure", "setting": "[1]", "result": 0.09, "unit": "mmol"}
    ]},
    {"smiles": "[2H]C([2H])([2H])C1=C(C(=O)OC)C(c2ccccc2[N+](=O)[O-])C(C(=O)OC)=C(C([2H])([2H])[2H])N1", "note": "[deuterated nifedipine]", "values": [
      {"measurement": "maximum change in mean arterial pressure at equipotent doses", "setting": "[2]", "result": "−40.3", "unit": "mmHg"},
      {"measurement": "potency on mean arterial pressure compared with control", "setting": "[2]; all doses, six rats per dose, p<0.05 (FIG. 6)", "result": "more potent than control nifedipine"},
      {"measurement": "duration of effect compared with control", "setting": "[2]; at each time period", "result": "greater for deuterated nifedipine compared to control nifedipine"},
      {"measurement": "duration of action (hypotensive response)", "setting": "[2]", "result": 62.2, "unit": "min"},
      {"measurement": "hypotensive effect compared with regular nifedipine", "setting": "[3]", "result": "greater than that of regular nifedipine"},
      {"measurement": "calcium current inhibition as a function of pulse frequency", "setting": "[4]; 1 and 0.3 second intervals, 5 micromolar (FIG. 4)", "result": "more effective than control nifedipine in blocking the calcium channels"},
      {"measurement": "decrease of inward current at increased stimulation frequency", "setting": "[4]; 5 micromolar, FIG. 2 panel C", "result": "more effective than control nifedipine"},
      {"measurement": "use dependent calcium channel inhibition", "setting": "[4]; all frequencies, 5 micromolar (FIG. 5)", "result": "greater use dependent calcium channel inhibition"},
      {"measurement": "inhibitory effect on inward calcium current", "setting": "[4]; repetitive 1 second pulses, 5 micromolar, p<0.05 (FIG. 3)", "result": "more effective at blocking calcium current than control current"}
    ]},
    {"smiles": "CC1(C)S[C@@H]2[C@H](NC(=O)COc3ccccc3)C(=O)N2[C@H]1C(=O)O", "note": "[deuterated penicillin V]", "values": [
      {"measurement": "concentration necessary to inhibit growth, modified vs control drug", "setting": "Staphylococcus aureus [5]", "result": "substantially less compared to control drug"},
      {"measurement": "concentration necessary to inhibit growth, modified vs control drug", "setting": "Streptococcus pyogenes [6]", "result": "substantially less compared to control drug"},
      {"measurement": "zones of inhibition, modified vs control drug", "setting": "Staphylococcus aureus [7]", "result": "greater for modified (test) compared to control drug"},
      {"measurement": "zones of inhibition, modified vs control drug", "setting": "Streptococcus pyogenes [8]", "result": "greater for modified (test) compared to control drug"},
      {"measurement": "zones of inhibition, modified vs control drug", "setting": "Streptococcus faecalis [9]", "result": "greater for modified (test) compared to control drug"},
      {"measurement": "potency, modified vs control drug", "setting": "[10]", "result": "always more potent than the controls"},
      {"measurement": "bacteriocidal activity", "setting": "S. aureus; high dose, higher inoculum (100 fold) (FIG. 30)", "result": "began to show effect"},
      {"measurement": "bacteriocidal activity", "setting": "S. aureus; higher doses, larger dose range (FIG. 31), listed as modified penicillin V", "result": "effective at higher doses"},
      {"measurement": "potency relative to native penicillin V in zonal inhibition", "setting": "[11]", "result": "increase in potency"}
    ]},
    {"smiles": "[2H]c1c([2H])c(OC)c(C(=O)N([2H])C2C(=O)N3C2SC(C)(C)C3C(=O)[O-])c(OC)c1[2H].[Na+]", "note": "(stereo not drawn) [modified methicillin]", "values": [
      {"measurement": "concentration necessary to inhibit growth, modified vs control drug", "setting": "Staphylococcus aureus [5]", "result": "less for control compared to modified drug"},
      {"measurement": "concentration necessary to inhibit growth, modified vs control drug", "setting": "Streptococcus pyogenes [6]", "result": "less for control compared to modified drug"},
      {"measurement": "concentration necessary to inhibit growth, modified vs control drug", "setting": "Streptococcus faecalis [12]", "result": "less for control compared to modified drug"},
      {"measurement": "zones of inhibition, modified vs control drug", "setting": "Staphylococcus aureus [7]", "result": "less for modified compared to control drug"},
      {"measurement": "zones of inhibition, modified vs control drug", "setting": "Streptococcus pyogenes [8]", "result": "less for modified compared to control drug"},
      {"measurement": "zones of inhibition, modified vs control drug", "setting": "Streptococcus faecalis [9]", "result": "less for modified compared to control drug"}
    ]},
    {"smiles": "COC(=O)C1=C(C)NC(C)=C(C(=O)OC)C1c1ccccc1[N+](=O)[O-]", "note": "[nifedipine, reference compound]", "values": [
      {"measurement": "maximum change in mean arterial pressure at equipotent doses", "setting": "[2]", "result": "−45.8", "unit": "mmHg"},
      {"measurement": "duration of action (hypotensive response)", "setting": "[2]", "result": 46.5, "unit": "min"}
    ]}
  ]
}
